Assay results: ChEMBL document CHEMBL4699579, “A Peptidyl Inhibitor that Blocks Calcineurin-NFAT Interaction and Prevents Acute Lung Injury” (J Med Chem, 2020)
Calls of active or inactive are those of the source. The rule behind the calls is not given here. Positions of bridges follow the written chain, without caps; N, C: chain ends. Non-standard residues stand in square brackets, D forms with d. Residues, ends and D or L forms follow the SMILES beside them. Chains are numbered I, II in the order given. *: point of attachment. 2Nal = N[C@@H](Cc1ccc2ccccc2c1)C(=O)O; Val(3-OH) = CC(C)(O)[C@H](N)C(=O)O; Tle = CC(C)(C)[C@H](N)C(=O)O; X1 = O=C(c1ccnc(Cl)c1Cl)*; AEEA = NCCOCCOCC(=O)O

How the values were obtained:
[1] = Stability in 25% human serum assessed as compound degradation at 5 uM at 37 degC incubated for 24 hrs by HPLC analysis; assay type: ADME, cell-free; settings: serum, 24 h, 5 µM
HeLa = assay: Toxicity in human HeLa cells assessed as reduction in cell viability up to 25 uM incubated for 72 hrs by MTT assay; assay type: cell-based
Macrophage [2] = assay: Inhibition of calcineurin-NFATc3 interaction in mouse lung macrophages assessed as reduction in LPS-induced TNFalpha production at 0.1 to 10 uM pre-incubated 4 hrs before LPS stimulation for 8 hrs by ELISA; assay type: tissue-based; settings: DISRUPTING AGENT, dose microM 0.1-10, time 12.0 hrs
Macrophage [3] = assay: Inhibition of calcineurin-NFATc3 interaction in mouse lung macrophages assessed as reduction in LPS-induced IL6 production at 0.1 to 10 uM pre-incubated 4 hrs before LPS stimulation for 8 hrs by ELISA; assay type: tissue-based; settings: DISRUPTING AGENT, dose microM 0.1-10, time 12.0 hrs
[4] = Stability in mouse hepatocytes at 2 uM incubated up to 90 mins by LC/MS/MS analysis; assay type: ADME, cell-based, Hepatocyte
[5] = Stability in simulated gastric fluid at 5 uM incubated for 2 hrs by LC/MS/MS analysis
[6] = Drug uptake in human HCT-116 cells spheroids at 5 uM incubated for 4 to 24 hrs by MALDI-TOF-TOF mass spectrometry; assay type: ADME, cell-based; settings: hct-116, 5 µM, TDE = time-dependent effect, time 4-24 hrs
[7] = Stability in mouse liver microsomes assessed as compound degradation at 100 uM incubated up to 60 mins in presence of NADPH by LC-MS/MS analysis; assay type: ADME, Microsome; settings: 1 h, TDE = time-dependent effect
[8] = Plasma concentration in BALB/c mouse at 5 mg/kg, iv after 2 to 4 hrs by LC-MS/MS analysis; assay type: ADME, organism-based; settings: in vivo, time 2-4 hrs
[9] = Plasma concentration in BALB/c mouse at 5 mg/kg, iv after 8 hrs by LC-MS/MS analysis; assay type: ADME, organism-based
[10] = Drug concentration in BALB/c mouse brain at 5 mg/kg, iv after 8 hrs by LC-MS/MS analysis; assay type: ADME, organism-based; settings: in vivo
[11] = Drug distribution in BALB/c mouse spleen at 0.6 mg/kg, iv using compound labelled with cyanine-5 measured after 24 hrs by fluorescence based assay; assay type: ADME, organism-based; settings: in vivo
[12] = Drug distribution in BALB/c mouse lung at 0.6 mg/kg, iv using compound labelled with cyanine-5 measured after 24 hrs by fluorescence based assay; assay type: ADME, organism-based; settings: read-out: Drug uptake
[13] = Drug distribution in BALB/c mouse lymph nodes at 0.6 mg/kg, iv using compound labelled with cyanine-5 measured after 24 hrs by fluorescence based assay; assay type: ADME, organism-based, Lymph node; settings: read-out: Drug uptake
[14] = Drug distribution in BALB/c mouse plasma at 0.6 mg/kg, iv using compound labelled with cyanine-5 measured after 24 hrs by fluorescence based assay; assay type: ADME, organism-based; settings: in vivo
[15] = Drug distribution in BALB/c mouse monocytes at 0.6 mg/kg, iv using compound labelled with cyanine-5 measured after 24 hrs by flow cytometry; assay type: ADME, organism-based, Monocyte; settings: in vivo
[16] = Drug distribution in BALB/c mouse kidney at […], ip using compound labelled with cyanine-5 measured after 24 hrs by fluorescence based assay; assay type: ADME, organism-based; settings: in vivo, dose 2.4 mg/kg
[17] = Drug distribution in BALB/c mouse spleen at […], ip using compound labelled with cyanine-5 measured after 24 hrs by fluorescence based assay; assay type: ADME, organism-based; settings: in vivo, dose 2.4 mg/kg
[18] = Drug distribution in BALB/c mouse lung at […], ip using compound labelled with cyanine-5 measured after 24 hrs by fluorescence based assay; assay type: ADME, organism-based; settings: dose 2.4 mg/kg, read-out: Drug uptake
[19] = Drug distribution in BALB/c mouse heart at […], ip using compound labelled with cyanine-5 measured after 24 hrs by fluorescence based assay; assay type: ADME, organism-based; settings: dose 2.4 mg/kg, read-out: Drug uptake
[20] = Drug distribution in BALB/c mouse pancreas at […], ip using compound labelled with cyanine-5 measured after 24 hrs by fluorescence based assay; assay type: ADME, organism-based; settings: dose 2.4 mg/kg, read-out: Drug uptake
[21] = Drug distribution in BALB/c mouse lymph nodes at […], ip using compound labelled with cyanine-5 measured after 24 hrs by fluorescence based assay; assay type: ADME, organism-based, Lymph node; settings: dose 2.4 mg/kg, read-out: Drug uptake
[22] = Drug distribution in BALB/c mouse plasma at […], ip using compound labelled with cyanine-5 measured after 24 hrs by fluorescence based assay; assay type: ADME, organism-based; settings: in vivo, dose 2.4 mg/kg
[23] = Drug distribution in BALB/c mouse muscle at […], ip using compound labelled with cyanine-5 measured after 24 hrs by fluorescence based assay; assay type: ADME, organism-based, Muscle tissue; settings: in vivo, dose 2.4 mg/kg
[24] = Drug distribution in BALB/c mouse Non-T and B lymphocytes at […], ip using compound labelled with cyanine-5 measured after 24 hrs by flow cytometry; assay type: ADME, organism-based, Lymphocyte; settings: in vivo, dose 2.4 mg/kg
[25] = Drug distribution in BALB/c mouse liver at […], sc using compound labelled with cyanine-5 measured after 24 hrs by fluorescence based assay; assay type: ADME, organism-based; settings: in vivo, dose 2.4 mg/kg
[26] = Drug distribution in BALB/c mouse spleen at […], sc using compound labelled with cyanine-5 measured after 24 hrs by fluorescence based assay; assay type: ADME, organism-based; settings: in vivo, dose 2.4 mg/kg
[27] = Drug distribution in BALB/c mouse heart at […], sc using compound labelled with cyanine-5 measured after 24 hrs by fluorescence based assay; assay type: ADME, organism-based; settings: dose 2.4 mg/kg, read-out: Drug uptake
[28] = Drug distribution in BALB/c mouse pancreas at […], sc using compound labelled with cyanine-5 measured after 24 hrs by fluorescence based assay; assay type: ADME, organism-based; settings: dose 2.4 mg/kg, read-out: Drug uptake
[29] = Drug distribution in BALB/c mouse plasma at […], sc using compound labelled with cyanine-5 measured after 24 hrs by fluorescence based assay; assay type: ADME, organism-based; settings: in vivo, dose 2.4 mg/kg
Mus musculus [30] = assay: Anti-inflammatory activity in BALB/c mouse model of LPS-induced ALI assessed as reduction in LPS-induced BALF protein levels at 5 mg/kg, iv pre-treated 4 hrs before LPS stimulation for 16 hrs; assay type: functional, organism-based; settings: time 20.0 hrs
Mus musculus [31] = assay: Anti-inflammatory activity in BALB/c mouse model of LPS-induced ALI assessed as reduction in LPS-induced TNFalpha in BALF at 5 mg/kg, iv pre-treated 4 hrs before LPS stimulation for 16 hrs; assay type: functional, organism-based; settings: time 20.0 hrs
Mus musculus [32] = assay: Anti-inflammatory activity in BALB/c mouse model of LPS-induced ALI assessed as reduction in LPS-induced IL6 in BALF at 3 mg/kg dosed via intranasal instillation pre-treated 2 hrs before LPS stimulation for 6 hrs and measured at 24 hrs; assay type: functional, organism-based
Mus musculus [33] = assay: Anti-inflammatory activity in BALB/c mouse model of LPS-induced ALI assessed as reduction in LPS-induced lung wet-to-dry ratios at 3 mg/kg dosed via intranasal instillation pre-treated 2 hrs before LPS stimulation for 6 hrs; assay type: functional, organism-based; settings: time 8.0 hrs
Mus musculus [34] = assay: Anti-inflammatory activity in BALB/c mouse model of LPS-induced ALI assessed as reduction in LPS-induced BALF protein levels at 0.3 to 3 mg/kg dosed via intranasal instillation pre-treated 2 hrs before LPS stimulation for 6 hrs; assay type: functional
Mus musculus [35] = assay: Anti-inflammatory activity in BALB/c mouse model of LPS-induced ALI assessed as reduction in LPS-induced TNFalpha in BALF at 0.3 to 3 mg/kg dosed via intranasal instillation pre-treated 2 hrs before LPS stimulation for 6 hrs; assay type: functional
[36] = dose mg/kg 0.3-3, time 8 hrs, read-out: MED

For `CC[C@H](C)[C@H](NC(=O)[C@@H](NC(=O)c1ccnc(Cl)c1Cl)C(C)(C)C)C(=O)N[C@H](C(=O)N[C@H](C(=O)N[C@H](C(=O)N[C@@H](CCC(N)=O)C(=O)N[C@@H](Cc1c[nH]cn1)C(=O)N[C@H](CC(C)C)C(=O)N[C@@H](CO)C(=O)NCCOCCOCC(=O)N[C@@H](CCCCNC(=O)CC[C@@H]1NC(=O)[C@@H](CCCNC(=N)N)NC(=O)[C@H](CCCNC(=N)N)NC(=O)[C@@H](CCCNC(=N)N)NC(=O)[C@H](CCCNC(=N)N)NC(=O)[C@H](Cc2ccc3ccccc3c2)NC(=O)[C@@H](Cc2ccccc2)NC1=O)C(N)=O)[C@@H](C)O)[C@@H](C)CC)C(C)(C)O` (I: X1-[Tle]I[Val(3-OH)]ITQH[dL]S[AEEA]K-NH2 / II: cyclo([2Nal]R[dR]R[dR]E[dF]); amide I:11-II:6), which Stabilty [1] is on record?
The Stabilty was “Stable”.

What about the Activity (HeLa) of the same compound?
The Activity was “Non-Toxic”.

What about the inhibition (Macrophage [2]) of the same compound?
Its inhibition is “Dose-dependent effect”.

What about the inhibition (Macrophage [3]) of the same compound?
The inhibition was “Dose-dependent effect”.

What about the Stabilty [4] of the same compound?
Its Stabilty is “Stable”.

And the Stability [5]?
The Stability was “Stable”.

What about the Drug uptake [6] of the same compound?
Its Drug uptake is “Tde”.

And the Drug degradation [7]?
Its Drug degradation is “Tde”.

And the concentration [8]?
The concentration was less than 5 nM.

What about the concentration at 8 h [9] of the same compound?
The concentration at 8 h was 13.5 nM.

And the Drug uptake [10]?
The Drug uptake was “Not Active”.

What about the Drug uptake [11] of the same compound?
The Drug uptake was “Active”.

And the concentration at 24 h [12]?
The concentration at 24 h was greater than 50 nM.

And the concentration at 24 h [13]?
Its concentration at 24 h is greater than 50 nM.

What about the Drug uptake [14] of the same compound?
The Drug uptake was “Not Active”.

And the Drug uptake [15]?
Its Drug uptake is “Active”.

And the Drug uptake [16]?
The Drug uptake was “Active”.

And the Drug uptake [17]?
Its Drug uptake is “Active”.

What about the concentration at 24 h [18] of the same compound?
The concentration at 24 h was greater than 50 nM.

And the concentration at 24 h [19]?
Its concentration at 24 h is greater than 50 nM.

And the concentration at 24 h [20]?
The concentration at 24 h was greater than 50 nM.

And the concentration at 24 h [21]?
The concentration at 24 h was greater than 50 nM.

What about the Drug uptake [22] of the same compound?
Its Drug uptake is “Not Active”.

And the Drug uptake [23]?
The Drug uptake was “Not Active”.

And the Drug uptake [24]?
The Drug uptake was “Active”.

What about the Drug uptake [25] of the same compound?
The Drug uptake was “Active”.

What about the Drug uptake [26] of the same compound?
Its Drug uptake is “Active”.

What about the concentration at 24 h [27] of the same compound?
Its concentration at 24 h is greater than 50 nM.

And the concentration at 24 h [28]?
The concentration at 24 h was greater than 50 nM.

What about the Drug uptake [29] of the same compound?
Its Drug uptake is “Not Active”.

And the Activity (Mus musculus [30])?
The Activity was “Active”.

And the Activity (Mus musculus [31])?
The Activity was “Active”.

What about the Activity (Mus musculus [32]) of the same compound?
Its Activity is “inactive”.

And the Activity (Mus musculus [33])?
The Activity was “Active”.

And the Activity (Mus musculus [34]; dose mg/kg 0.3-3, time 8.0 hrs)?
Its Activity is “Dose-dependent effect”.

And the minimal effective dose (Mus musculus [34]; [36])?
The minimal effective dose was 1 mg/kg.

What about the Activity (Mus musculus [35]; dose mg/kg 0.3-3, time 8.0 hrs) of the same compound?
Its Activity is “Dose-dependent effect”.

And the minimal effective dose (Mus musculus [35]; [36])?
Its minimal effective dose is 1 mg/kg.
